Values of other authors in patent publication US9585827B2, “Kits comprising a beverage composition and information for use” (The Procter & Gamble Company, priority 2000, dated 2017).

What was measured:
[1] = Reussner et al. 1975; phosphate added to low pH powdered beverage compositions
dental caries = details: Städtler et al. 1996; toothpaste formulations of near-neutral pH

Compound | protective effect against molar erosion [1] | effect against dental caries (dental caries)
O=P1([O-])OP(=O)([O-])OP(=O)([O-])OP(=O)([O-])OP(=O)([O-])OP(=O)([O-])O1.[Na+].[Na+].[Na+].[Na+].[Na+].[Na+] [sodium hexametaphosphate] | did not produce significant protective effects | 
O=P1([O-])OP(=O)([O-])OP(=O)([O-])O1.[Na+].[Na+].[Na+] [trimetaphosphate] |  | may be effective against dental caries
